In the assay the test system is TNF-α production by BV2 cells or PBMC. As to the kind of experiment: Cellular assay to measure TNF-α inhibition (LPS-stimulated, ELISA). The conditions noted are these: BV2 cells or PBMC (not specified), LPS 100 ng/ml over 24 hours, relative to DMSO vehicle; compound concentration not stated. Type of assay: cell-based, murine (BV2) or human (PBMC). An excerpt: Oxidative metabolism exerts an anti-inflammatory effect on myeloid cell phenotype (O'Neill L A, Front Immunol. 2014) and Ppargc1a can promote this energy metabolic pathway (Spiegelman BM, Novartis Found Symp. 2007). Thus, pharmacological activation of Ppargc1a would be expected to inhibit the inflammatory response of myeloid cells. This phenomenon can be measured in cultures by a TNF-α inhibition assay.
Cellular Assay Protocol to Measure TNF-α Inhibition
The murine myeloid cell line BV2 or human peripheral blood mononuclear cells (PBMC) are cultured in RPMI 1640 media (Cat #11875119, Gibco) supplemented with 10% fetal bovine serum and 1% L-glutamine 1% penicillin. These cells are then stimulated with 100 ng/ml of lipopolysaccharide (LPS, O111:B34, Cat # L2630, Sigma) over 24 hours. LPS stimulation results in the secretion of the inflammatory cytokine TNF-α by BV2 cells or PBMC, which can be quantified by ELISA in culture supernatant samples per manufacturer's protocol (Cat #558273 for BV2 and Cat #558299 for PBMC, BD Biosciences). To determine whether exampl compounds 1-78 inhibit TNF-α production by BV2 cells or PBMC, the cells were cultured in the presence of the compounds at different concentrations, and fold reduction in TNF-α production relative to TNF-α production by the same cells cultured in the presence of dimethylsulfoxide (as vehicle control) was determined.
For orientation: ELISA stands for enzyme-linked immunosorbent assay.

Regarding `c1ccc(-c2ccc(-c3nc4ccccc4[nH]3)cc2)cc1` [Example 65, 2-(4-Biphenyl)-1H-benzo[d]imidazole], the “TNF α Inhibition” value is “C (C = <50% inh.)”. Consider `Brc1ccccc1-c1nc2ccccc2[nH]1` [Example 23, 2-(2-Bromophenyl)-1H-benzo[d]imidazole], for which the “TNF α Inhibition” value was “B (B = 50-80% inh.)”. As for `CC(C)c1ccc(-c2nc3ccccc3[nH]2)cc1` [Example 33, 2-(4-Isopropylphenyl)-1H-benzo[d]imidazole], the “TNF α Inhibition” value is “C (C = <50% inh.)”. For the molecule `CC(C)(C)c1ccc(-c2nc3cc(Cl)ccc3[nH]2)cc1` [Example 37, 2-(4-tert-Butylphenyl)-5-chloro-1H-benzo[d]imidazole], the “TNF α Inhibition” value is on record as “A (A = >80% inh.)”. For `Clc1ccccc1-c1nc2ccccc2[nH]1` [Example 7, 2-(2-Chlorophenyl)-1H-benzo[d]imidazole], the “TNF α Inhibition” value is recorded as “C (C = <50% inh.)”.

Take `FC(F)(F)C1(c2ccc(-c3nc4ccccc4[nH]3)cc2)CC1` [Example 59, 2-[4-[1-(Trifluoromethyl)-cyclopropyl]phenyl]-1H-benzo[d]imidazole]: the “TNF α Inhibition” value was “C (C = <50% inh.)”. For the molecule `CC(C)(C)c1ccc(-c2nc3c(C(N)=O)cccc3[nH]2)cc1` [Example 74, 2-(4-tert-Butylphenyl)-1H-benzo[d]imidazol-4-carboxamide], the “TNF α Inhibition” value is given as “A (A = >80% inh.)”.

`Fc1ccccc1-c1nc2ccccc2[nH]1` [Example 17, 2-(2-Fluorophenyl)-1H-benzo[d]imidazole]: the “TNF α Inhibition” value was “C (C = <50% inh.)”. Consider `CC(C)(C)c1ccc(-c2nc3c(Cl)cccc3[nH]2)cc1` [Example 46, 2-(4-tert-Butylphenyl)-4-chloro-1H-benzo[d]imidazole], for which the “TNF α Inhibition” value was “A (A = >80% inh.)”. As to `COc1ccccc1-c1nc2ccccc2[nH]1` [Example 25, 2-(2-Methoxy-phenyl)-1H-benzo[d]imidazole], the “TNF α Inhibition” value is reported as “C (C = <50% inh.)”. For the molecule `Clc1cccc(-c2nc3ccccc3[nH]2)c1` [Example 27, 2-(3-Chlorophenyl)-1H-benzo[d]imidazole], the “TNF α Inhibition” value is listed as “C (C = <50% inh.)”. Regarding `Oc1ccc(-c2nc3ccccc3[nH]2)cc1` [Example 24, 2-(4-Hydroxy-phenyl)-1H-benzo[d]imidazole], the “TNF α Inhibition” value is on record as “A (A = >80% inh.)”.

Consider `CC(C)(C)c1ccc(-c2nc3c(N)cccc3[nH]2)cc1` [Example 62, 2-(4-tert-Butylphenyl)-1H-benzo[d]imidazol-4-amine], for which the “TNF α Inhibition” value was “A (A = >80% inh.)”.

Consider `CCCOc1ccc(-c2nc3ccccc3[nH]2)cc1` [Example 68, 2-(4-Propoxyphenyl)-1H-benzo[d]imidazole], for which the “TNF α Inhibition” value is recorded as “C (C = <50% inh.)”. As for `c1ccc(-c2nc3ccccc3[nH]2)cc1` [Example 14, 2-(Phenyl)-1H-benzo[d]imidazole], the entry is “C (C = <50% inh.)”.

Regarding `CC(C)(C)c1ccc(-c2nc3ncccc3[nH]2)cc1` [Example 35, 2-(4-tert-Butylphenyl)-1H-imidazo[4,5-b]pyridine], the “TNF α Inhibition” value is given as “C (C = <50% inh.)”. For `N#Cc1cccc(-c2nc3ccccc3[nH]2)c1` [Example 30, 2-(3-Cyanophenyl)-1H-benzo[d]imidazole], the “TNF α Inhibition” value was “C (C = <50% inh.)”. Regarding `CC(C)(C)c1ccc(-c2nc3cc(F)ccc3[nH]2)cc1` [Example 41, 2-(4-tert-Butylphenyl)-5-fluoro-1H-benzo[d]imidazole], the “TNF α Inhibition” value is “C (C = <50% inh.)”. Consider `COc1ccc(-c2nc3c(F)cc(F)cc3[nH]2)cc1` [Example 78, 4,6-Difluoro-2-(4-methoxyphenyl)-1H-benzo[d]imidazole], for which the “TNF α Inhibition” value is given as “C (C = <50% inh.)”. Consider `CC(C)(C)c1ccc(-c2nc3ccccc3[nH]2)cn1` [Example 10, 2-(6-tert-Butyl-3-pyridyl)-1H-benzo[d]imidazole], for which the “TNF α Inhibition” value is “A (A = >80% inh.)”. Turning to `N#Cc1ccc(-c2nc3ccccc3[nH]2)cc1` [Example 18, 2-(4-Cyanophenyl)-1H-benzo[d]imidazole], the “TNF α Inhibition” value is given as “C (C = <50% inh.)”.

For the origin of these results see patent US11111217B2, “2-arylbenzimidazoles as Ppargc1a activators for treating neurodegenerative diseases” (The Board of Trustees of the Leland Stanford Junior …, priority 2018, dated 2021).
